Source: patent US20260159512A1, “BCAT2 INHIBITORS” (AGIOS PHARMACEUTICALS, INC., priority 2021, published 2026)

Legend:
Details in all cases: average where tested multiple times
BCAT2 [1] = molecular target: T1, BCAT2 (Homo sapiens, UniProt O15382); assay: BCAT2 in vitro enzyme inhibition assay (resazurin/diaphorase-coupled fluorescence); type: biochemical; parameters: key to BCAT2 Enzyme Inhibition: A: less than or equal to 0.100 μM; B: greater than 0.100 and less than or equal to 0.500 μM; C: greater than 0.500 and less than or equal to 1.000 μM; d: greater than 1.000 μM; E: no fit
T1 sequence (O15382 28-392): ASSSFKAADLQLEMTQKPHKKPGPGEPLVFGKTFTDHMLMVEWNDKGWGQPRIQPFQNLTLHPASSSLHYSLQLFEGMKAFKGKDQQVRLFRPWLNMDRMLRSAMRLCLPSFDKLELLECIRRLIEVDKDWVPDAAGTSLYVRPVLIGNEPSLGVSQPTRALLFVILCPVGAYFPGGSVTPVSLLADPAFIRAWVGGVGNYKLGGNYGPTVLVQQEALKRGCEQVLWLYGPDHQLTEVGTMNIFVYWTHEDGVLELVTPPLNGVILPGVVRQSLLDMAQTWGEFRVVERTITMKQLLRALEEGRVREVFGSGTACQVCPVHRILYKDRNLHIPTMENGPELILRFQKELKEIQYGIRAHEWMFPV
Outline: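 Coupled fluorescence readout: glutamate formed from L-leucine/α-ketoglutarate transamination drives GDH/NAD/diaphorase reduction of resazurin (Ex 540/Em 590). Human BCAT2 was first exposed 1 h at room temperature to compound, top final 100 μM in 3-fold, 10-point series; substrate reaction ran 1 h before SDS quench, in technical duplicate with DMSO max and enzyme-free min controls.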

hBCAT1 = molecular target: T2, hBCAT1 (Homo sapiens, UniProt P54687); assay: BCAT1 in vitro enzyme inhibition assay (resazurin/diaphorase-coupled fluorescence); type: biochemical
T2 sequence (P54687 1-386): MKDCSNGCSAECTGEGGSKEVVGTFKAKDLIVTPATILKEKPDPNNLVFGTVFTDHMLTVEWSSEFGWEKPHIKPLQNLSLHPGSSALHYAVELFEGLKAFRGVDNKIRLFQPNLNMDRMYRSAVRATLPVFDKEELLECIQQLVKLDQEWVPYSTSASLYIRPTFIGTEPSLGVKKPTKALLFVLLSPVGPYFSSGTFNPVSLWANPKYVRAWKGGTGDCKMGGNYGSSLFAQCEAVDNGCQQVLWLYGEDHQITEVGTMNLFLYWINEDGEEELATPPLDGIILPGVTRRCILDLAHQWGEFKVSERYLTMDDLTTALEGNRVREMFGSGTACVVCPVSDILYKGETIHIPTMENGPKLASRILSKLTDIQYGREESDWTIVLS
Method: BCAT1 In Vitro Enzyme Inhibition Assay
Meanwhile the Substrate Mix was prepared.
Test Compound Preparation:
Test compounds were prepared at 50× final concentration in DMSO, 1 to 3 dilutions were made for 10 points. The compounds were added to the assay as a 1 to 50 dilution (1 μL in 50 μL) to yield a top assay final concentration of 100 μM, decreasing 3-fold for 10 points. […] All tests were performed in technical duplicate.
Where a compound was tested multiple times, the average value of the tests is reported.

BCAT2 [2] = molecular target: T1, BCAT2; assay: BCAT2 in vitro cell inhibition using engineered A549 cells (KMV cell assay, 13C6-KMV by LC-MS/MS); type: cell-based; parameters: The result was an engineered A549 cell line that expressed endogenous BCAT2; endogenous in cells; host or cells: A549 cells with MUT and BCAT1 knocked out by CRISPR/CAS9; key to BCAT2 Cell Inhibition: A: less than or equal to 0.100 μM; B: greater than 0.100 and less than or equal to 0.500 μM; C: greater than 0.500 and less than or equal to 1.000 μM; d: greater than 1.000 μM; E: no fit

Compound	IC50 (BCAT2 [1]) [µM]	IC50 (hBCAT1) [µM]	BCAT2 Cell Inhibition (BCAT2 [2])	IC50 (BCAT2 [2]) [µM]	BCAT2 Enzyme Inhibition (BCAT2 [1])
O=C(NC1COCC(n2c(-c3ncccc3F)nc3cnc(-n4ccnn4)cc32)C1)c1ncc(C(F)F)s1 (single isomer, unassigned) [Example 144, 5-(difluoromethyl)-N-(5-(2-(3-fluoropyridin-2-yl)-6-(1H-1,2,3-triazol-1-yl)-1H-imidazo[4,5-c]pyridin-1-yl)tetrahydro-2H-pyran-3-yl)thiazole-2-carboxamide]	0.5 to 1	> 5	–	–	–
O=C(NC1COCC(n2c(-c3ccccn3)nc3cnc(-n4ccnn4)cc32)C1)c1ncc(C(F)F)s1 (single isomer, unassigned) [Example 146, 5-(difluoromethyl)-N-(5-(2-(pyridin-2-yl)-6-(1H-1,2,3-triazol-1-yl)-1H-imidazo[4,5-c]pyridin-1-yl)tetrahydro-2H-pyran-3-yl)thiazole-2-carboxamide]	> 1	> 5	–	–	–
CC(C)Cc1nc2cnc(-c3ncccn3)cc2n1[C@H]1C[C@H](O)C[C@@H](NC(=O)c2ncc(Cl)s2)C1 (stereo in doubt) [Example 398, 5-chloro-N-((1S,3R,5R)-3-hydroxy-5-(2-isobutyl-6-(pyrimidin-2-yl)-1H-imidazo[4,5-c]pyridin-1-yl)cyclohexyl)thiazole-2-carboxamide]	≤ 0.1	< 0.5	–	–	–
CC(C)Cc1nc2cnc(-c3nc[nH]n3)cc2n1[C@@H]1C[C@H](NC(=O)c2ccc(Cl)s2)CC(F)(F)C1 (stereo in doubt) [Example 454, 5-chloro-N-((1S,5R)-3,3-difluoro-5-(2-isobutyl-6-(1H-1,2,4-triazol-3-yl)-1H-imidazo[4,5-c]pyridin-1-yl)cyclohexyl)thiophene-2-carboxamide]	≤ 0.1	< 0.5	–	–	–
O=C(N[C@H]1CCC[C@@H](n2c(-c3ccccc3F)nc3cnc(-n4cncn4)cc32)C1)c1ccc(Br)s1 [Example 17, 5-bromo-N-((1S,3R)-3-(2-(2-fluorophenyl)-6-(1H-1,2,4-triazol-1-yl)-1H-imidazo[4,5-c]pyridin-1-yl)cyclohexyl)thiophene-2-carboxamide]	≤ 0.1	< 0.5	–	–	–
C#Cc1cnc(C(=O)N[C@H]2CCC[C@@H](n3c(-c4ccccn4)nc4cnc(-n5cncn5)cc43)C2)s1 [Example 27, 5-ethynyl-N-((1S,3R)-3-(2-(pyridin-2-yl)-6-(1H-1,2,4-triazol-1-yl)-1H-imidazo[4,5-c]pyridin-1-yl)cyclohexyl)thiazole-2-carboxamide]	≤ 0.1	1 to 5	–	–	–
Cc1cn(-c2cc3c(cn2)nc(-c2ccccn2)n3[C@@H]2CCC[C@H](NC(=O)c3ccc(Br)s3)C2)nn1 [Example 40, 5-bromo-N-((1S,3R)-3-(6-(4-methyl-1H-1,2,3-triazol-1-yl)-2-(pyridin-2-yl)-1H-imidazo[4,5-c]pyridin-1-yl)cyclohexyl)thiophene-2-carboxamide]	≤ 0.1	1 to 5	–	–	–
Cc1nc2cnc(-n3nccn3)cc2n1[C@@H]1CCC[C@H](NC(=O)c2ccc(Br)s2)C1 [Example 51, 5-bromo-N-((1S,3R)-3-(2-methyl-6-(2H-1,2,3-triazol-2-yl)-1H-imidazo[4,5-c]pyridin-1-yl)cyclohexyl)thiophene-2-carboxamide]	> 1	> 5	–	–	–
O=C(N[C@H]1CCC[C@@H](n2c(-c3ncccc3F)nc3cnc(N4CCNC4=O)cc32)C1)c1ncc(C(F)F)s1 [Example 54, 5-(difluoromethyl)-N-((1S,3R)-3-(2-(3-fluoropyridin-2-yl)-6-(2-oxoimidazolidin-1-yl)-1H-imidazo[4,5-c]pyridin-1-yl)cyclohexyl)thiazole-2-carboxamide]	≤ 0.1	> 5	–	–	–
O=C(N[C@H]1CCC[C@@H](n2c(-n3cccn3)nc3cnc(-n4ccnn4)cc32)C1)c1ncc(C(F)F)s1 [Example 57, N-((1S,3R)-3-(2-(1H-pyrazol-1-yl)-6-(1H-1,2,3-triazol-1-yl)-1H-imidazo[4,5-c]pyridin-1-yl)cyclohexyl)-5-(difluoromethyl)thiazole-2-carboxamide]	0.5 to 1	> 5	–	–	–
CO[C@@H]1C[C@@H](NC(=O)c2ncc(Cl)s2)C[C@@H](n2c(CC(C)C)nc3cnc(-n4cncn4)cc32)C1 [Example 418, 5-chloro-N-((1S,3R,5R)-3-(2-isobutyl-6-(1H-1,2,4-triazol-1-yl)-1H-imidazo[4,5-c]pyridin-1-yl)-5-methoxycyclohexyl)thiazole-2-carboxamide]	> 1	–	E	–	–
CO[C@@H]1C[C@@H](NC(=O)c2ncc(Cl)s2)C[C@@H](n2c(-c3ccccc3F)nc3cnc(N4CCC[C@H]4CO)cc32)C1 [Example 430, 5-chloro-N-((1S,3R,5R)-3-(2-(2-fluorophenyl)-6-((S)-2-(hydroxymethyl)pyrrolidin-1-yl)-1H-imidazo[4,5-c]pyridin-1-yl)-5-methoxycyclohexyl)thiazole-2-carboxamide]	> 1	–	–	> 1	–
CO[C@H]1[C@@H](NC(=O)c2ncc(Cl)s2)CCC[C@H]1n1c(-c2ccccc2F)nc2cnc(-c3nc[nH]n3)cc21 [Example 433, 5-chloro-N-((1S,2S,3R)-3-(2-(2-fluorophenyl)-6-(1H-1,2,4-triazol-3-yl)-1H-imidazo[4,5-c]pyridin-1-yl)-2-methoxycyclohexyl)thiazole-2-carboxamide]	–	–	E	–	E
CO[C@@H]1[C@H](NC(=O)c2ncc(Cl)s2)CCC[C@@H]1n1c(-c2ccccc2F)nc2cnc(-c3nc[nH]n3)cc21 [Example 434, 5-chloro-N-((1R,2R,3S)-3-(2-(2-fluorophenyl)-6-(1H-1,2,4-triazol-3-yl)-1H-imidazo[4,5-c]pyridin-1-yl)-2-methoxycyclohexyl)thiazole-2-carboxamide]	–	–	E	–	E
CO[C@@H]1C[C@@H](NC(=O)c2ncc(Cl)s2)C[C@@H](n2c(CC(C)C)nc3cnc(-c4ncccn4)cc32)C1 [Example 436, 5-chloro-N-((1S,3R,5R)-3-(2-isobutyl-6-(pyrimidin-2-yl)-1H-imidazo[4,5-c]pyridin-1-yl)-5-methoxycyclohexyl)thiazole-2-carboxamide]	0.5 to 1	–	E	–	–
CS(=O)(=O)N1C[C@@H](NC(=O)c2ccc(Cl)s2)C[C@@H](n2c(-c3ccccc3F)nc3cnc(-c4nc[nH]n4)cc32)C1 [Example 459, 5-chloro-N-((3S,5R)-5-(2-(2-fluorophenyl)-6-(1H-1,2,4-triazol-3-yl)-1H-imidazo[4,5-c]pyridin-1-yl)-1-(methylsulfonyl)piperidin-3-yl)thiophene-2-carboxamide]	≤ 0.1	–	–	0.1 to 0.5	–
COC(=O)N1C[C@@H](NC(=O)c2ccc(Cl)s2)C[C@@H](n2c(-c3ccccc3F)nc3cnc(-c4nc[nH]n4)cc32)C1 [Example 463, methyl (3S,5R)-3-(5-chlorothiophene-2-carboxamido)-5-(2-(2-fluorophenyl)-6-(1H-1,2,4-triazol-3-yl)-1H-imidazo[4,5-c]pyridin-1-yl)piperidine-1-carboxylate]	≤ 0.1	–	–	0.5 to 1	–
O=C(N[C@H]1CCC[C@@H](n2c(-c3ccccc3F)nc3ccc(-c4ncco4)cc32)[C@@H]1O)c1ncc(Cl)s1 [Example 465, 5-chloro-N-((1S,2R,3R)-3-(2-(2-fluorophenyl)-6-(oxazol-2-yl)-1H-benzo[d]imidazol-1-yl)-2-hydroxycyclohexyl)thiazole-2-carboxamide]	≤ 0.1	–	–	≤ 0.1	–
O=C(N[C@H]1CCC[C@@H](n2c(-c3ccccc3F)nc3ccc(-c4ncccn4)cc32)[C@@H]1O)c1ncc(Cl)s1 [Example 466, 5-chloro-N-((1S,2R,3R)-3-(2-(2-fluorophenyl)-6-(pyrimidin-2-yl)-1H-benzo[d]imidazol-1-yl)-2-hydroxycyclohexyl)thiazole-2-carboxamide]	≤ 0.1	–	–	≤ 0.1	–
